Tests used:
[1] = Inhibition of Mycobacterium tuberculosis DNA gyrase assessed as reduction in DNA supercoiled DNA formation incubated for 30 mins by […] analysis
[2] = Selectivity index, ratio of IC50 for cytotoxicity against human NFF cells to […] for antiproliferative activity against mouse NS-1 cells
NFF [3] = experiment: Cytotoxicity against human NFF cells assessed as reduction in cell viability after 48 hrs by resazurin dye based assay
[4] = Antiproliferative activity against mouse NS-1 cells assessed as reduction in cell viability after 48 hrs by resazurin dye based assay; type: functional; settings: NS1, 48 h
NFF [5] = experiment: Cytotoxicity against human NFF cells assessed as reduction in cell viability at 1 mM after 48 hrs by resazurin dye based assay relative to control; settings: 1000 µM

| Compound | IC50 [1] [µM] | Ratio IC50 [2] | IC50 (NFF [3]) [µM] | IC50 [4] [µM] | Activity (NFF [5]) [%] |
| --- | --- | --- | --- | --- | --- |
| Cc1cc2c(c(O)c1-c1c(C)cc(O)c3c1C(=O)C=CC3=O)C(=O)C=CC2=O | 100 | – | – | – | – |
| COc1cc(C)cc2c1C(=O)C=C(c1c(C)cc3c(c1OC)C(=O)C=CC3=O)C2=O | – | 31 | 25.7 | 0.8 | – |
| Cc1cc(O)c2c(c1)C(=O)C=C(c1c(C)cc3c(c1O)C(=O)C=CC3=O)C2=O | – | 14 | 31.8 | 1.8 | – |
| O=C(O)c1cn(C2CC2)c2cc(N3CCNCC3)c(F)cc2c1=O [CIPROFLOXACIN] | 10 | – | – | – | – |
| Cc1cc(O)c2c(c1)C(=O)C(c1c(C)cc3c(c1O)C(=O)C=CC3=O)=CC2=O [DIOSPYRIN] | 15 | 10 | 5.8 | 0.8 | – |
| O=c1[nH]cc(F)c(=O)[nH]1 [FLUOROURACIL] | – | >352 | – | 2.8 | 13 |
| Cc1cc(O)c2c(c1)C(=O)C=C(c1c(C)cc(O)c3c1C(=O)C=CC3=O)C2=O [NEODIOSPYRIN] | 50 | – | – | – | – |
| Cc1cc(O)c2c(c1)C(=O)C=CC2=O [RAMENTACEONE] | – | 15 | 7.6 | 0.5 | – |
